In patent publication US7417058B2, “Pharmaceutically active benzsulfonamide derivatives as inhibitors of protein junkinases” (Laboratoires Serono S.A., priority 2000, dated 2008):

What was measured:
GST-JNK3 = GST-JNK3 (Homo sapiens, UniProt P53779); test: JNK3 in vitro assay (33P incorporation into c-Jun, SPA); assay type: biochemical; conditions: recombinant pre-activated GST-JNK3, biotinylated GST-c-Jun, 2 μM 33γ-ATP, 120 min RT
Description: (§1) JNK2 and -3 in vitro Assays:
(§2) The phosphorylation of c-jun by JNK2 or JNK3 may be followed by monitoring the incorporation of ^33P into c-jun following the protocol below. The inhibitory activity of the compounds according to formula I, in respect of c-jun phosphorylation through JNK, is determined by calculating the phosphorylation activity of a JNK in the presence or absence of the test compounds according to formula I.
(§3) JNK3 and/or -2 assays are performed in 96 well MTT plates: incubation of 0.5 μg of recombinant, pre-activated GST-JNK3 or GST-JNK2 with 1 μg of recombinant, biotinylated GST-c-Jun and 2 μM ^33γ-ATP (2 nCi/μl), in the presence or absence of compounds according to formula I and in a reaction volume of 50 μl containing 50 mM Tris-HCl, pH 8.0; 10 mM MgCl2; 1 mM Dithiothreitol, and 100 μM NaVO4. The incubation is performed for 120 min. at R.T and stopped upon addition of 200 μl of a solution containing 250 μg of Streptavidine-coated SPA beads (Amersham, Inc.)*, 5 mM EDTA, 0.1% Triton X-100 and 50 μM ATP, in phosphate saline buffer.
(§4) After incubation for 60 minutes at RT, beads are sedimented by centrifugation at 1500×g for 5 minutes, resuspended in 200 μl of PBS containing 5 mM EDTA, 0.1% Triton X-100 and 50 μM ATP and the radioactivity measured in a scintillation β counter, following sedimentation of the beads as described above. By replacing biotinylated GST-c Jun with biotinylated GST-1ATF2 or biotinylated myelin basic protein, this assay may also be used to measure inhibition of pre-activated p38 and ERK MAP Kinases, respectively.
(§5) The values indicated in respect of JNK2 and 3 refer to the IC50 (μM), i.e. the amount necessary to achieve 50% inhibition either of JNK3 or JNK2.

GST-JNK2 = GST-JNK2 (Homo sapiens, UniProt P45984); test: JNK2 in vitro assay (33P incorporation into c-Jun, SPA); assay type: biochemical; conditions: recombinant pre-activated GST-JNK2, biotinylated GST-c-Jun, 2 μM 33γ-ATP, 120 min RT
GST-JNK2, sequence (P45984 whole entry): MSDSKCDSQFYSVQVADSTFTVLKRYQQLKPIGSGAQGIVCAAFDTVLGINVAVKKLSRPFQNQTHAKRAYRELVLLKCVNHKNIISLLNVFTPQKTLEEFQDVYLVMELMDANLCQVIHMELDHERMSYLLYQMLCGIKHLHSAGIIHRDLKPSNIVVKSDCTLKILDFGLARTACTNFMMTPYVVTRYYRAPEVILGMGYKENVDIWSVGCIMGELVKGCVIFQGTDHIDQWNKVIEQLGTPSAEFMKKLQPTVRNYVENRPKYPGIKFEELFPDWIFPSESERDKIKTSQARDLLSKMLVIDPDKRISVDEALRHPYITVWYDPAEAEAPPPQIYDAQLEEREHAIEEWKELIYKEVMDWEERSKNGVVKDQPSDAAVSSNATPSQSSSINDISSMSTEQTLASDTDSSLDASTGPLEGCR
Description: as §1, §2, §3, §4, §5

GST-JNK3, sequence (P53779 whole entry): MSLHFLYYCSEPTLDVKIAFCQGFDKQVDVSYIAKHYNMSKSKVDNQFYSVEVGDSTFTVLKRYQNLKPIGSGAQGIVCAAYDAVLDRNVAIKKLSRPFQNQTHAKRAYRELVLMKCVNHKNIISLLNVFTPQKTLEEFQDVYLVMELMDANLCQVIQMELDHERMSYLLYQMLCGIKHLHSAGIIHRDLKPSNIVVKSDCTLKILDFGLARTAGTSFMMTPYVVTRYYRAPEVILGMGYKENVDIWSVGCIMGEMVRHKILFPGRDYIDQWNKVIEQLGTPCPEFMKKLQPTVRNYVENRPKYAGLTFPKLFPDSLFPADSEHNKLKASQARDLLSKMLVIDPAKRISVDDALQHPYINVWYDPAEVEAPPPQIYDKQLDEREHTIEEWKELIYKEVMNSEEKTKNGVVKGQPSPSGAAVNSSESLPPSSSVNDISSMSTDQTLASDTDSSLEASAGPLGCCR

Compound `CCCCCCNC1CCN(S(=O)(=O)c2ccc(NC(=O)c3ccc(Cl)cc3)cc2)C1` (centres unmarked) [Example 28, 4-chloro-N-(4-{[3-(hexylamino)-1-pyrrolidinyl]sulfonyl}phenyl)benzamide] has an IC50 (GST-JNK3) of less than 0.4 µM and an IC50 (GST-JNK2) of less than 0.7 µM.

`O=C(NCc1cccc(S(=O)(=O)N2CCC(Nc3cccc(S(=O)(=O)C(F)(F)F)c3)CC2)c1)c1ccc(Cl)cc1` [Example 3, 4-chloro-N-{3-[(4-{3-[(trifluoromethyl)sulfonyl]anilino}-1-piperidinyl)sulfonyl]benzyl}benzamide] was tested, and the IC50 (GST-JNK3) was less than 0.4 µM and the IC50 (GST-JNK2) was less than 0.7 µM.

Compound `O=C(NCc1ccc(S(=O)(=O)N2CCC(NCCc3cccc(C(F)(F)F)c3)C2)cc1)c1ccc(Cl)cc1` (centres unmarked) [Example 31, 4-chloro-N-(4-{[3-({2-[3-(trifluoromethyl)phenyl]ethyl)amino)-1-pyrrolidinyl]sulfonyl}benzyl)benzamide] has an IC50 (GST-JNK3) of less than 0.4 µM and an IC50 (GST-JNK2) of less than 0.7 µM.

Work on `O=C(NCc1ccc(S(=O)(=O)N2CCC(NCCc3cccc(C(F)(F)F)c3)CC2)cc1)c1ccc(Cl)cc1` [Example 11, 4-chloro-N-(4-{[4-({2-[3-(trifluoromethyl)phenyl]ethyl}amino)-1-piperidinyl]sulfonyl}benzyl)benzamide] yielded an IC50 (GST-JNK3) of less than 0.4 µM and an IC50 (GST-JNK2) of less than 0.7 µM.
